Results reported in US5045566A, “Novel imidate insecticides” (ICI Americas Inc., priority 1989, dated 1991).

Tests used:
Assay type in all cases: in vivo
[1] = test system: Housefly [Musca domestica]; assay: Housefly contact mortality in dishes (HF), 48 hours; conditions: μg of test compound per 25 female flies
Summary of the method: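 LC50, as μg compound per 25 female flies, comes from dosage-mortality curves with doses from 100 μg downward. Residues were made by evaporating acetone plus 0.01% peanut oil in dishes, onto which 1-2-day-old females were caged; deaths were counted after 48 hours.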

[2] = test system: Black Bean Aphid [Aphis fabae (Scop.)]; assay: Black bean aphid spray test on nasturtium (BBA), 48 hours; conditions: percent of test compound in sprayed solution
Summary of the method: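 LC50, given as percent test compound in the sprayed liquid, was calculated from dosage-mortality curves using concentrations from 0.05% downward. Sprays in 50:50 acetone-water went to runoff on ~5 cm nasturtiums carrying 25-50 aphids of mixed ages, one day after infestation. Deaths were counted 48 h later under greenhouse conditions.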

[3] = test system: Tobacco Budworm [Heliothis virescens (Fabricius)] eggs; assay: Tobacco budworm eggs (TBW-E); conditions: percent in solution; 2-day old eggs
Summary of the method: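 2-day eggs on paper towel, acetone dip, 0.1% and below; petri dish with larval diet, 78° F. Mortality read after control hatch and larval feeding. LC50 = % compound in solution, from dose-mortality curve.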

[4] = test system: Cabbage Looper [Trichoplusia ni (Hubner)]; assay: Cabbage looper leaf dip (CL), 3-5 days; conditions: percent in solution, second-instar larvae
Summary of the method: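 LC50 values, given as percent test compound in solution, were calculated from dosage-mortality curves. Squash cotyledons were immersed 2-3 s in acetone-water (50-50) dilutions starting at 0.1%, dried on a screen, then infested with five second-instar larvae. Mortality was read 3-5 days on.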

[5] = test system: Aster Leafhopper [Macrosteles fascifrens (Stal)]; assay: Aster leafhopper on dipped oat seedlings (LH), 48 hours; conditions: percent in solution, adults/nymphs
Method: The compounds in Tables 1 and 2 above were tested for insecticidal activity using the following testing procedures. LC50 values, based on the results of these tests and calculated according to dosage-mortality curves, are expressed in Table 3.
Aster Leafhopper [Macrosteles fascifrens (Stal)]
Oat seedlings (Avena sp) were grown in a commercial potting soil in cups. When the plants were approximately 10 cm tall they were thinned to three plants per cup and dipped for 2-3 seconds in 50-50 acetone-water solutions of the test compounds. When the plants had dried, a clear plastic tube was placed over them and the bottom end pressed into the cup. Ten aster leafhopper adults/nymphs were then placed in each tube and the tops of the tubes covered with white organdy cloth. Mortality counts were made after 48 hours. Test concentrations ranged from 0.05% down to that at which 50% mortality occurred. The LC50 values are expressed below in Table 3 under the heading "LH" in terms of the percent of the test compound in the solution.

Compound	LC50 HF [1]	LC50 BBA [2]	LC50 TBW E (eggs) [3]	LC50 CL [4]	LC50 LH [5]
CC(C)C(=Nc1cc(Cl)cc(Cl)c1)OCc1cccc(Oc2ccccc2)c1 [Compound 16]	20 µg	0.0004%	0.04%	0.004%	0.0005%
CC(C)C(=Nc1cc(Cl)c(Cl)c(Cl)c1)OCc1cccc(Oc2ccccc2)c1 [Compound 20]	64 µg	0.0006%	< 0.1%	0.0025%	0.003%
Fc1ccc(N=C(OCc2cccc(Oc3ccccc3)c2)C(Cl)=C(Cl)Cl)cc1 [Compound 49]	> 100 µg	0.05%	> 0.05%	0.007%	> 0.05%
CC(C)C(=Nc1c(F)c(F)cc(F)c1F)OCc1cccc(Oc2ccccc2)c1 [Compound 57]	> 100 µg	0.03%	0.1%	0.004%	0.0005%
COc1ccc(OC)c(N=C(OCc2cccc(Oc3ccccc3)c2)C(C)C)c1 [Compound 69]	> 100 µg	> 0.05%	> 0.1%	0.09%	> 0.05%
CC(C)C(=Nc1ccc(OC(F)(F)F)cc1)OCc1cccc(Oc2ccccc2)c1 [Compound 70]	< 100 µg	< 0.05%	0.01%	< 0.1%	> 0.05%
CC(C)C(=Nc1ccc(C(F)(F)F)c(Cl)c1)OCc1cccc(Oc2ccccc2)c1 [Compound 83]	> 100 µg	0.05%	> 0.1%	0.007%	> 0.05%
Cc1ccc(N=C(OCc2cccc(Oc3ccccc3)c2)C(C)C)cc1Cl [Compound 90]	> 100 µg	0.0003%	0.016%	> 0.1%	0.001%
COc1c(Cl)cc(N=C(OCc2cccc(Oc3ccccc3)c2)C(C)C)cc1Cl [Compound 91]	37 µg	0.001%	> 0.01%	0.002%	0.003%
CC(C)C(=Nc1c(Cl)cc([N+](=O)[O-])cc1Cl)OCc1cccc(Oc2ccccc2)c1 [Compound 92]	> 100 µg	> 0.05%	> 0.1%	0.015%	> 0.05%
Clc1ccc(N=C(OCc2cccc(Oc3ccccc3)c2)C(Cl)Cl)c2ccccc12 [Compound 98]	> 100 µg	> 0.05%	0.1%	0.016%	> 0.05%
Cc1c(Cl)cc(N=C(OCc2cccc(Oc3ccccc3)c2)C(C)C)cc1Cl [Compound 101]	81 µg	0.002%	> 0.1%	0.0045%	0.0008%
CCOC(=O)c1cc(N=C(OCc2cccc(Oc3ccccc3)c2)C(C)C)ccc1Cl [Compound 102]	> 100 µg	0.05%	> 0.1%	0.075%	> 0.05%
CC(C)(Cl)C(=Nc1ccc(C#N)c(Cl)c1)OCc1cccc(Oc2ccccc2)c1 [Compound 108]	44 µg	0.01%	> 0.1%	0.002%	> 0.01%
CC(C)C(=Nc1c(F)cc(F)cc1Br)OCc1cccc(Oc2ccccc2)c1 [Compound 129]	> 100 µg	0.03%	> 0.1%	0.005%	0.01%
CC(C)C(=Nc1ccc(Br)cc1)OCc1cccc(Oc2ccccc2)c1 [Compound 131]	17 µg	0.003%	> 0.1%	0.0045%	0.005%
CC(C)(C)C(=Nc1ccc(Br)cc1)OCc1cccc(Oc2ccccc2)c1 [Compound 135]	> 100 µg	> 0.05%	> 0.1%	0.004%	> 0.05%
CC(C)C(=Nc1ccc(I)cc1)OCc1cccc(Oc2ccccc2)c1 [Compound 137]	18 µg	0.03%	0.04%	0.003%	0.008%
CCc1cccc(N=C(OCc2cccc(Oc3ccccc3)c2)C(C)C)c1 [Compound 154]	25 µg	0.002%	0.1%	0.004%	> 0.05%
CCc1ccc(N=C(OCc2cccc(Oc3ccc(F)cc3)c2)C(C)C)cc1 [Compound 159]	25 µg	0.001%	0.08%	0.001%	0.0025%
CCc1ccc(N=C(OCc2cccc(Oc3ccccc3)c2)C(C)C)cc1 [Compound 161]	15 µg	0.0006%	0.07%	0.0014%	0.002%
CCc1cccc(N=C(OCc2cccc(Oc3ccccc3)c2)C(C)(C)C)c1 [Compound 162]	> 100 µg	> 0.05%	> 0.1%	0.035%	> 0.05%
CC(C)C(=Nc1ccc2c(c1)CCC2)OCc1cccc(Oc2ccccc2)c1 [Compound 187]	15 µg	0.001%	> 0.1%	0.0025%	0.0025%
Cc1ccc(Oc2cccc(COC(=Nc3ccc(F)c(Cl)c3)C(C)C)c2)cc1 [Compound 225]	> 100 µg	0.006%	> 0.1%	0.0025%	> 0.05%
CC(C)C(=Nc1ccc(C(C)C)cc1)OCc1cccc(Oc2ccc(F)cc2)c1 [Compound 228]	> 100 µg	0.01%	> 0.1%	0.0025%	> 0.05%
CC(C)C(=Nc1ccc2c(c1)OC(C)(C)O2)OCc1ccc(F)c(Oc2ccccc2)c1 [Compound 242]	< 100 µg	< 0.05%	> 0.1%	0.00025%	> 0.05%
